Like-named read-outs stand apart in the source and are kept apart here.
Key:
TEAD = TEAD reporter assay (Hippo Pathway TEAD Reporter - MCF7 cell line, luciferase); type: cell-based; conditions: Homo sapiens
Source text: TEAD inhibition can be assayed using Hippo Pathway TEAD Reporter—MCF7 Cell Line (BPS Bioscience, Catalog #: 60618).
The TEAD Reporter—MCF7 cell line contains the firefly luciferase gene under the control of TEAD responsive elements stably integrated into the human breast cancer cell line, MCF7. Inside the cells, basal unphosphorylated YAP/TAZ remains in the nucleus and induces the constitutive expression of luciferase reporter. The cell line is validated for the inhibition of the expression of luciferase reporter by the activators of the Hippo pathway.
• 1) Harvest TEAD Reporter—MCF7 cells from culture in growth medium and seed cells at a density of 35,000 cells per well into white clear-bottom 96-well microplate in 45 μl of assay medium. • 2) Incubate cells at 37° C. in a CO2 incubator for overnight. • 3) Dilute the activators (H2O2 or okadaic acid) stock in assay medium. Add 5 μl of diluted activators to the wells. The final concentration of DMSO in assay medium is 0.1%. • 4) Add 5 μl of assay medium with same concentration of DMSO without activator to control wells. • 5) Add 50 μl of assay medium with DMSO to cell-free control wells (for determining background luminescence). • 6) Set up each treatment in at least triplicate. • 7) Incubate cells at 37° C. in a CO2 incubator for 5-6 hours. • 8) Perform luciferase assay using the ONE-Step™ Luciferase Assay System following the protocol provided: Add 100 μl of ONE-Step™ Luciferase reagent per well and rock at room temperature for ˜15 minutes. Measure luminescence using a luminometer. • 9) Data Analysis: Obtain the background-subtracted luminescence by subtracting the average background luminescence (cell-free control wells) from the luminescence reading of all wells.
(§1) Certain compounds were tested in TEAD reporter assay, and in H226 and H28. A: EC50<0.1 uM; B: 0.1 uM≤EC50≤0.5 uM; C: EC50>0.5 uM.

H226 = assay: Anti-proliferation assay in H226 cells; type: cell-based; conditions: Homo sapiens
Protocol: as §1
(§2) Individual cell lines were grown in medium according to supplier instructions and seeded into 96-well plates at a density that ensured logarithmic growth over 72 hours. TEAD inhibitor compounds were administered to cells at a top concentration of 10 μm and subsequently a 10 point 3-fold serial dilution was conducted. After 72 hours, proliferation was quantified using Cell TITERGLO™ (Promega, Inc.) and compared to vehicle control. IC50 and EC50 values were generated using XLFit curve fitting software.

H28 = assay: Anti-proliferation assay in H28 cells; type: cell-based; conditions: Homo sapiens, NCI-H28
Protocol: as §1, §2

[1] = Mouse pharmacokinetics study; type: in vivo; conditions: BALB/c mice, 10 mg/kg by oral gavage in 5% DMS/95% PEG400, plasma
Protocol: Formulated compounds were administered intravenously or orally via gavage to BALB/c mice. Typically, at 0.167, 0.5, 1, 2, 4, 6, 12, and 24 hours post-dose, blood was collected and processed to plasma by centrifugation and stored at −80° C. until analysis. Internal standard was added to each sample prior to protein precipitation with acetonitrile or TCA. The precipitates were filtered through a filter plate and the samples were analyzed by LC/MS/MS. A standard curve was prepared in plasma from typically from 1.0 ng/mL to 3000 ng/mL and processed in the same manner as the samples. Sample analysis was typically performed on a suitable LC/MS/MS system fitted with an analytical UPLC column and compounds eluted from the analytical column with a gradient from 30-95% 0.1% formic acid (v/v) in ACN: 0.1% formic acid (v/v) in water. Mass spectrometric detection of test compound and the internal standard was performed by MRM in positive mode. The pharmacokinetics of each compound were analyzed by Phoenix WinNonlin software (Pharsight, St. Louis, Mo.) via noncompartmental analysis.

[2] = TEAD Reporter - MCF7 cells, read-out: TEAD Reporter Assay EC50
[3] = NCI-H226, H226 cells, read-out: H226 EC50

Row | EC50 (TEAD; [2]) [µM] | EC50 (H226; [3]) [µM] | AUC(0-t) [1] [ng·h/mL] | Cmax [1] [ng/mL] | Compound | EC50 (H28) [nM] | EC50 (TEAD; MCF7, read-out: TEAD Reporter Assay EC50 (uM)) [µM] | EC50 (H226; NCI-H226, read-out: H226 EC50 (uM)) [µM]
1 | 0.1 to 0.5 | > 0.5 | – | – | CNS(=O)(=O)c1ccc(NCc2ccccc2)c(-c2nnn(C)n2)c1 [I-16, 4-(benzylamino)-N-methyl-3-(2-methyltetrazol-5-yl)benzenesulfonamide] | > 500 | – | –
2 | > 0.5 | > 0.5 | – | – | Cn1nnc(-c2cc(B(O)O)ccc2Nc2cccc(C(F)(F)F)c2)n1 [I-17, [3-(2-methyltetrazol-5-yl)-4-[3-(trifluoromethyl)anilino]phenyl]boronic acid] | > 500 | – | –
3 | < 0.1 | < 0.1 | 2250 | 1040 | CNS(=O)(=O)c1ccc(NCc2ccccc2)c(-c2cn(C)cn2)c1 [I-27, 4-(Benzylamino)-N-methyl-3-(1-methylimidazol-4-yl)benzenesulfonamide] | > 500 | – | –
4 | < 0.1 | < 0.1 | 887 | 882 | CNS(=O)(=O)c1ccc(N[C@H](C)c2ccccc2)c(-c2cn(C)cn2)c1 [I-30, N-Methyl-3-(1-methylimidazol-4-yl)-4-[[(1R)-1-phenylethyl]amino]benzenesulfonamide] | – | – | –
5 | < 0.1 | < 0.1 | 2520 | 774 | CNS(=O)(=O)c1ccc(NCc2cccc(C(F)(F)F)c2)c(-c2cn(C)cn2)c1 [I-31, N-Methyl-3-(1-methyl-1H-imidazol-4-yl)-4-((3-(trifluoromethyl)benzyl)amino)benzenesulfonamide] | – | – | –
6 | < 0.1 | < 0.1 | 4580 | 1090 | CNS(=O)(=O)c1ccc(NCc2ccc(C(F)(F)F)cc2)c(-c2cn(C)cn2)c1 [I-32, N-Methyl-3-(1-methyl-1H-imidazol-4-yl)-4-((4-(trifluoromethyl)benzyl)amino)benzenesulfonamide] | – | – | –
7 | < 0.1 | < 0.1 | 731 | 420 | CNS(=O)(=O)c1ccc(Nc2cc(C(F)(F)F)ccn2)c(-c2cn(C)cn2)c1 [I-33, N-Methyl-3-(1-methylimidazol-4-yl)-4-[[4-(trifluoromethyl)-2-pyridyl]amino]benzenesulfonamide] | – | – | –
8 | < 0.1 | < 0.1 | 521 | 351 | CCNS(=O)(=O)c1ccc(Nc2cc(C(F)(F)F)ccn2)c(-c2cn(C)cn2)c1 [I-37, N-Ethyl-3-(1-methylimidazol-4-yl)-4-[[4-(trifluoromethyl)-2-pyridyl]amino]benzenesulfonamide] | – | – | –
9 | < 0.1 | < 0.1 | 25900 | 1620 | CNS(=O)(=O)c1ccc(Nc2ccc(C(F)(F)F)cn2)c(-c2cn(C)cn2)c1 [I-38, N-Methyl-3-(1-methylimidazol-4-yl)-4-[[5-(trifluoromethyl)-2-pyridyl]amino]benzenesulfonamide] | – | – | –
10 | < 0.1 | < 0.1 | – | – | CNS(=O)(=O)c1ccc(Nc2ccc(C(F)(F)F)cn2)c(-c2cn(C(C)C)cn2)c1 [I-85, 3-(1-isopropylimidazol-4-yl)-N-methyl-4-[[5-(trifluoromethyl)-2-pyridyl]amino]benzenesulfonamide] | – | – | –
11 | > 0.5 | 0.1 to 0.5 | – | – | CNS(=O)(=O)c1ccc(Nc2ccc(C#N)cn2)c(-c2cn(C)cn2)c1 [I-86, 4-[(5-Cyano-2-pyridyl)amino]-N-methyl-3-(1-methylimidazol-4-yl)benzenesulfonamide] | – | – | –
12 | – | – | 2330 | 558 | CNS(=O)(=O)c1ccc(Nc2cccc(C(F)(F)F)c2)c(-c2cn(C)cn2)c1 [P-12] | – | – | –
13 | – | – | 622 | 210 | CNS(=O)(=O)c1ccc(Nc2cccc(C(F)(F)F)c2)c(-c2nnn(C)n2)c1 [P-14] | – | – | –

Row | Compound | EC50 (TEAD; [2]) [µM] | EC50 (H226; [3]) [µM] | AUC(0-t) [1] [ng·h/mL] | Cmax [1] [ng/mL] | EC50 (H28) [nM] | EC50 (TEAD; MCF7, read-out: TEAD Reporter Assay EC50 (uM)) [µM] | EC50 (H226; NCI-H226, read-out: H226 EC50 (uM)) [µM]
14 | CNS(=O)(=O)c1cnc(Nc2cccc(C(F)(F)F)c2)c(-c2cn(C)cn2)c1 [I-36, N-Methyl-5-(1-methylimidazol-4-yl)-6-[3-(trifluoromethyl)anilino]pyridine-3-sulfonamide] | – | – | 595 | 213 | – | < 0.1 | < 0.1
